Experimental data as given in ChEMBL document CHEMBL1145448, “Synthesis and evaluation of tripodal peptide analogues for cellular delivery of phosphopeptides” (J Med Chem, 2007).
Non-standard residues stand in square brackets, D forms with d. Residues, ends and D or L forms follow the SMILES beside them. *: point of attachment. X1 = O=C(O)c1cc(C(=O)*)ccc1-c1c2ccc(=O)cc-2oc2cc(O)ccc12; pY = N[C@@H](Cc1ccc(OP(=O)(O)O)cc1)C(=O)O; 12Ado = NCCCCCCCCCCCC(=O)O

Legend:
[1] = Cellular uptake in BT20 cells in presence of 77 mM sodium azide; assay type: ADME, cell-based; settings: human, bt-20
[2] = Cytotoxicity against BT20 cells by cell viability assay; assay type: cell-based; settings: human, bt-20

| SMILES | Activity [1] | Activity [2] [%] |
| --- | --- | --- |
| N=C(N)NCCC[C@H](NC(=O)CCCCCCCCCCCNC(=O)[C@H](CCCNC(=N)N)NC(=O)CCCCCCCCCCCNC(=O)[C@H](CCCCN)NC(=O)CNC(=O)c1ccc(-c2c3ccc(=O)cc-3oc3cc(O)ccc23)c(C(=O)O)c1)C(=O)O (X1-GK[12Ado]R[12Ado]R-OH) | Active | > 96 |
| CC[C@H](C)[C@H](NC(=O)[C@H](CCC(=O)O)NC(=O)[C@H](CCC(=O)O)NC(=O)[C@H](Cc1ccc(OP(=O)(O)O)cc1)NC(=O)CNC(=O)c1ccc(-c2c3ccc(=O)cc-3oc3cc(O)ccc23)c(C(=O)O)c1)C(=O)O (X1-G[pY]EEI-OH) | – | > 96 |
